Reference: patent EP1243268A1, “MEDICINAL COMPOSITION” (Nippon Shinyaku Co., Ltd., priority 1999, dated 2001)

Key:
mesangial cells = assay: Effect on anti-Thy-1 antibody nephritis in rats (count of cells in the glomeruli); assay type: in vivo; details: rats with anti-Thy-1 antibody nephritis; suspension (1mg/1ml) orally, 1 ml/100g of body weight twice a day for 7 days; kidneys removed on day 8; number of cells per glomerulus, mean ± standard error; Control 104.3±3.3, intact animal 67.25; *: P<0.05, **: P<0.01 (Dunnett's test)
Text: Anti-Thy-1 antibody-induced nephritis is a model of glomerulonephritis constructed by utilizing the reaction between the Thy-1 antigen occurring as a membrane protein of mesangial cells and the antibody to the antigen. In this model, injuries to mesangial cells and lesions associated with mesangial cell proliferation are found. While a large majority of types of chronic glomerulonephritis in human are those of proliferative glomerulonephritis which show mesangial cell proliferation and increases in mesangial matrix as cardinal pathologic features, anti-Thy-1 antibody nephritis is regarded as a model of this human proliferative glomerulonephritis, particularly mesangial proliferative nephritis [Ishizaki et al., Acta. Pathol. Jpn., 36, 1191 (1986)].
Rats were used in groups of 7.
Preparation of the antibody was carried out in accordance with the method of Ishizaki et al. referred to above. Thus, an adjuvant suspension of rat thymocytes was prepared and subcutaneously administered to rabbits for immunization. After two booster doses, the blood was collected and the serum separated was subjected to inactivation and absorption to provide an antiserum (anti-Thy-1 antibody).
A predetermined amount of the antiserum was injected intravenously from the tail vein of rats to induce nephritis. Starting the following day after injection, a suspension (1mg/1ml) of the test drug was administered orally at a dosage of 1 ml/100g of body weight of rat twice a day for 7 days. On day 8 following the beginning of administration, the animals were sacrificed and the kidneys were removed. The kidney was fixed in Carnoy's fixative and, in the routine manner, paraffin sections were prepared and stained with hematoxyline stain for microscopy. For histopathological evaluation, the number of cells in the glomeruli (mainly mesangial cells) in each tissue preparation was counted under a light microscope. Statistical analysis was performed by Dunnett's test.

mice = assay: Acute toxicity; assay type: in vivo; details: suspension orally at 300 mg/kg, general condition observed for a week after administration
Description: Each of the compounds in Preparation Examples 1, 5, 6, 33, 34, 39, and 48 was administered.

Row | SMILES | Number of mesangial cells a) (mesangial cells) | deaths (mice)
1 | Cc1ccc2c(c1)c(C(=O)N1CCN(c3ccccn3)CC1)c(-c1ccccc1)n2C.Cl [Preparation Example 1, 1-(1,5-Dimethyl-2-phenylindol-3-ylcarbonyl)-4-(2-pyridyl)piperazine hydrochloride] | 90.3±2.2* | No deaths were observed
2 | Cn1c(-c2ccccc2)c(C(=O)N2CC[N+]([O-])(c3ccccn3)CC2)c2ccccc21 [Preparation Example 5, 1-(1-Methyl-2-phenylindol-3-ylcarbonyl)-4-(2-pyridyl)piperazine-4-oxide] |  | No deaths were observed
3 | Cl.Cn1c(-c2ccccc2)c(C(=O)N2CCN(c3ccccn3)CC2)c2ccccc21 [Preparation Example 6, 1-(1-Methyl-2-phenylindol-3-ylcarbonyl)-4-(2-pyridyl)piperazine hydrochloride] |  | No deaths were observed
4 | Cc1ccc2c(c1)c(C(=O)N1CCN(c3cccnc3)CC1)c(-c1ccccc1)n2C.Cl.Cl [Preparation Example 33, 1-(1,5-Dimethyl-2-phenylindol-3-ylcarbonyl)-4-(3-pyridyl)piperazine dihydrochloride] | 88.5±3.7** | No deaths were observed
5 | Cc1ccc2c(c1)c(C(=O)N1CCN(c3ccncc3)CC1)c(-c1ccccc1)n2C.Cl [Preparation Example 34, 1-(1,5-Dimethyl-2-phenylindol-3-ylcarbonyl)-4-(4-pyridyl)piperazine hydrochloride] | 87.1±5.7** | No deaths were observed
6 | Cc1cc2c(C(=O)N3CCN(c4ccncc4)CC3)c(-c3ccccc3)n(C)c2cc1C.Cl [Preparation Example 39, 1-(1,5,6-Trimethyl-2-phenylindol-3-ylcarbonyl)-4-(4-pyridyl)piperazine hydrochloride] |  | No deaths were observed
7 | Cl.Cn1c(-c2ccccc2)c(C(=O)N2CCN(c3ccc([N+](=O)[O-])cn3)CC2)c2ccccc21 [Preparation Example 48, 1-(1-Methyl-2-phenylindol-3-ylcarbonyl)-4-(5-nitro-2-pyridyl)piperazine hydrochloride] | 89.2±3.1* | No deaths were observed
